Key:
[1] = system: MDA-MB-468 breast cancer cell line; assay: Clonogenic assay after PHI-101 and radiation, MDA-MB-468; assay type: cell-based; conditions: PHI-101 0.1, 0.2 or 0.5 μM, 0, 1, 2 or 3 Gy 3 hours after treatment, colonies after 10 days
Description: (§1) Whether the PHI-101 compound can act as a radiotherapy sensitizer for breast cancer was evaluated using clonogenic assay.
(§2) Specifically, each of the breast cancer cell lines shown in Table 2 below was added to DMEM medium in a 60-mm dish at a density of 300 cells, and treated with PHI-101 at a concentration of 0.1, 0.2 or 0.5 μM. As a control, DMSO was used.
(§3) 3 hours after PHI-101 treatment, the cells were irradiated with radiation having an intensity of 0, 1, 2 or 3 Gy. Next, the cells were cultured under 5% CO2 at 37° C. for 10 days, and then the formed colonies were stained with 0.4% crystal violet. Then, the colonies were counted and the surviving fraction of the cells was calculated. The results of calculating the surviving fraction were normalized and fitted to a linear-quadratic model using Kaleidagraph version 351 (Synergy Software, Reading, PA).

[2] = system: FaDu cell line; assay: Tumor volume in mice transplanted with FaDu head and neck cancer cell line after PHI-101 and radiation; assay type: in vivo; conditions: FaDu xenograft mice; PHI-101 20 mg/kg intraperitoneally 3 h before and 24, 48, 72, 96 h after 3 Gy 60Co γ-ray, repeated three times for 3 weeks; combination
Description: (§4) 6-week-old female Balb/c nu/nu mice (Orient Bio Inc.) and NOD SCID mice (Orient Bio Inc.) were prepared. The mice were acclimated for 1 week after purchase, and then tumor transplants were prepared. During the animal experiment, cages were replaced once a week, and drinking water and feed were often checked to ensure that they were always sufficiently supplied.
(§5) Each of the tumor cell lines shown in Table 1 below was cultured with DMEM (Dulbecco's Modified Eagle Medium) or RPMI-1640 in a 150-mm culture dish (SPL) under 5% CO2 at 37° C. Then, each tumor cell line was diluted to a density of 1×10^6 cells/100 μl using cold DPBS buffer (Welgene), and kept cold on ice until transplantation. […]
(§6) When each tumor cell line transplanted to the mice in Example 1-2 proliferated and the tumor begun to be visible, the lengths of the longest and shortest diameters of the tumor were measured using digital calipers (Mitutoyo). […]
(§7) The tumor volume was measured at intervals of 2 to 4 days, and was calculated using the following equation: V=½(L×W^2) • V=volume (mm^3) • L=length [mm], the longest diameter • W=width [mm], the shortest diameter
(§8) The measurement end time was determined based on when the average volume of the control tumor reached about 2,000 mm^3. The data of the measured tumor volume was first organized in Microsoft Excel, and plotted in GraphPad Prism. […]

[3] = system: JIMT-1 cell line; assay: Tumor volume in mice transplanted with JIMT-1 breast cancer cell line after PHI-101 and radiation; assay type: in vivo; conditions: JIMT-1 xenograft mice; PHI-101 20 mg/kg intraperitoneally 24 h and 3 h before and 24, 48, 72 h after 3 Gy 60Co γ-ray, repeated three times for 3 weeks; combination
Description: as §4, §5, §6, §7, §8

[4] = system: JIMT-1 breast cancer cell line; assay: Clonogenic assay after PHI-101 and radiation, JIMT-1; assay type: cell-based; conditions: PHI-101 0.1, 0.2 or 0.5 μM, 0, 1, 2 or 3 Gy 3 hours after treatment, colonies after 10 days
Description: as §1, §2, §3

[5] = system: HCT116 cell line; assay: Tumor volume in mice transplanted with HCT116 colorectal cancer cell line after PHI-101 and radiation; assay type: in vivo; conditions: HCT116 xenograft mice; PHI-101 20 mg/kg intraperitoneally 24 h and 3 h before and 24 h after 3 Gy X-ray, repeated twice at one-week interval; combination
Description: as §4, §5, §6, §7, §8

NC(=O)Nc1cc(C#Cc2cccc(F)c2)sc1C(=O)N[C@H]1CCCNC1 [PHI-101, (S)-5-((3-fluorophenyl)ethynyl)-N-(piperidin-3-yl)-3-ureido-thiophene-2-carboxamide]
radiation sensitivity of the breast cancer cells (surviving fraction, linear-quadratic model) [1]: increased in a concentration-dependent manner | tumor volume inhibited compared to when only irradiation was performed [2]: 29.16% | tumor volume reduced compared to that in the control group [2]: 37.50% | tumor volume inhibited compared to when only irradiation was performed [3]: 20.53% | tumor volume reduced compared to that in the control group [3]: 27.32% | radiation sensitivity of the breast cancer cells (surviving fraction, linear-quadratic model) [4]: increased in a concentration-dependent manner | tumor volume inhibited compared to when only irradiation was performed [5]: 36.60% | tumor volume reduced compared to that in the control group [5]: 49.58%
